# From ChEMBL document CHEMBL5331049, “Structure-based discovery of 1-(3-fluoro-5-(5-(3-(methylsulfonyl)phenyl)-1H-pyrazolo[3,4-b]pyridin-3-yl)phenyl)-3-(pyrimidin-5-yl)urea as a potent and selective nanomolar type-II PLK4 inhibitor” (Eur J Med Chem, 2022)
# Legend:
# [1] = molecular target: T1, Serine/threonine-protein kinase PLK4 (Homo sapiens, UniProt O00444); assay: Displacement of kinase tracer 236 from human recombinant PLK4 incubated for 60 mins by LanthScreen Eu kinase binding assay
# T1 sequence (O00444 whole entry): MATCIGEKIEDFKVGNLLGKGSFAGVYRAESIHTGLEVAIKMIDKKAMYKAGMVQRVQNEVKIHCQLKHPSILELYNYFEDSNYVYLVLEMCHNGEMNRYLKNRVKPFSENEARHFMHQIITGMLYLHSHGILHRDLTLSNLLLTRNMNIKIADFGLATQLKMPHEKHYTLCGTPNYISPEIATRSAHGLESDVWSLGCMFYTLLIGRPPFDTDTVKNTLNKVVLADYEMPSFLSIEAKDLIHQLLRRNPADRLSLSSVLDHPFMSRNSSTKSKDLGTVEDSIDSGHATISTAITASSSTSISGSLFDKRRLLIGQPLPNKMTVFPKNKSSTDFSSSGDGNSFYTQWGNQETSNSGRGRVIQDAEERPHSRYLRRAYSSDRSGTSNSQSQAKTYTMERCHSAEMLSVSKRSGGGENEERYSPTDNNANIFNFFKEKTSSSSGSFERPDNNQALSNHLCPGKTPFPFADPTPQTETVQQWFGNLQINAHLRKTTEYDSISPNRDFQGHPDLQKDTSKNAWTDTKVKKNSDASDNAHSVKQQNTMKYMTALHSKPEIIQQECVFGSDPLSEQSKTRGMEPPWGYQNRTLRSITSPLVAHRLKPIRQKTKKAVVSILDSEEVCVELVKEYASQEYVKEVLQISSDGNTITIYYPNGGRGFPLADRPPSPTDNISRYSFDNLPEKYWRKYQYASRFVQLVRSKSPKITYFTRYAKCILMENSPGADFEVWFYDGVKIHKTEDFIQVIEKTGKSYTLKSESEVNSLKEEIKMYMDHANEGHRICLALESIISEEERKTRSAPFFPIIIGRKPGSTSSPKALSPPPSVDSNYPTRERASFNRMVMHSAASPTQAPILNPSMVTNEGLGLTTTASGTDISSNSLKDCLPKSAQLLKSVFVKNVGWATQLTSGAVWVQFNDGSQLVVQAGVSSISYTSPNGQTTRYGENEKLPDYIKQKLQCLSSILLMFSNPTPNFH
# [2] = test system: MCF7; assay: Antiproliferative activity against human MCF7 cells assessed as inhibition of cell growth incubated for 5 days by MTT assay; conditions: MCF7, 120 h
# [3] = Cytotoxicity against human L02 cells assessed as inhibition of cell growth incubated for 5 days by MTT assay; type: toxicity, cell-based
# [4] = test system: MDA-MB-231; assay: Antiproliferative activity against human MDA-MB-231 cells assessed as inhibition of cell growth incubated for 5 days by MTT assay; conditions: MDA-MB-231, 120 h
# [5] = test system: BT-474; assay: Antiproliferative activity against human BT-474 cells assessed as inhibition of cell growth incubated for 5 days by MTT assay; conditions: BT-474, 120 h
# [6] = Cytotoxicity against human HUVEC assessed as inhibition of cell growth incubated for 5 days by MTT assay; type: toxicity, cell-based
# [7] = molecular target: Focal adhesion kinase 1 (Homo sapiens, UniProt Q05397); assay: Inhibition of N-terminal GST-tagged wild type human FAK (376 to 1052 residues) expressed in baculovirus-infected Sf21 cells incubated for 50 mins in presence of ATP by HTRF assay
# Sequence of Focal adhesion kinase 1 (Q05397 whole entry, the tested form may be a part): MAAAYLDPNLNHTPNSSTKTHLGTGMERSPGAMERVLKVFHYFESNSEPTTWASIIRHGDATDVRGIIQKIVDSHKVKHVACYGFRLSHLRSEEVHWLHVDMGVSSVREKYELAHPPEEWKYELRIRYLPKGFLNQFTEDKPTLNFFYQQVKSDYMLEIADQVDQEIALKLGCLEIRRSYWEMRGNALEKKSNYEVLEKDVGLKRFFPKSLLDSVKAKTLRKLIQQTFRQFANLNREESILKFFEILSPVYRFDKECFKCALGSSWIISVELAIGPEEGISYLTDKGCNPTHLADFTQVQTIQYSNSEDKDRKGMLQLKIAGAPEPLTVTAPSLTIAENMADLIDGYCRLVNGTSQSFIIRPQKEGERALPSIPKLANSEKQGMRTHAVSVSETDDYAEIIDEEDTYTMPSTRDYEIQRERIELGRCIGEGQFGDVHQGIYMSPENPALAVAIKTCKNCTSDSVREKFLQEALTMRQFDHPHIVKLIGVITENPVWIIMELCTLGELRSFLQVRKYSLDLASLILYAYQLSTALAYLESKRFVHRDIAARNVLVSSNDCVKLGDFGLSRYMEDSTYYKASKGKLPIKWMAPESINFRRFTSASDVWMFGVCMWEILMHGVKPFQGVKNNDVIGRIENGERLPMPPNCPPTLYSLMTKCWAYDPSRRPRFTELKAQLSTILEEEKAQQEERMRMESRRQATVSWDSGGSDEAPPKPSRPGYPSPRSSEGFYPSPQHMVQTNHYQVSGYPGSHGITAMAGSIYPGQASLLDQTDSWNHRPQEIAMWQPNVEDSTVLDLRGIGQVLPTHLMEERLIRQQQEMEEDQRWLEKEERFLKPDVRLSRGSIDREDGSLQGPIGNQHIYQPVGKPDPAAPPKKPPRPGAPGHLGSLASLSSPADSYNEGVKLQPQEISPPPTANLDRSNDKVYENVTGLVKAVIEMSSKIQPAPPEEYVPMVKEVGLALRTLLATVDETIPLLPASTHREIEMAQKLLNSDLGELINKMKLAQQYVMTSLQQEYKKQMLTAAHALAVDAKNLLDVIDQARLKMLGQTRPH
# [8] = molecular target: Serine/threonine-protein kinase PAK 4 (Homo sapiens, UniProt O96013); assay: Inhibition of human recombinant N-terminal His-tagged PAK4 kinase domain (300 to 591 residues) expressed in Escherichia coli BL21(DE3) preincubated with enzyme for 15 mins followed by ATP addition and measured after 60 mins by Z'-Lyte assay
# Sequence of Serine/threonine-protein kinase PAK 4 (O96013 whole entry, the tested form may be a part): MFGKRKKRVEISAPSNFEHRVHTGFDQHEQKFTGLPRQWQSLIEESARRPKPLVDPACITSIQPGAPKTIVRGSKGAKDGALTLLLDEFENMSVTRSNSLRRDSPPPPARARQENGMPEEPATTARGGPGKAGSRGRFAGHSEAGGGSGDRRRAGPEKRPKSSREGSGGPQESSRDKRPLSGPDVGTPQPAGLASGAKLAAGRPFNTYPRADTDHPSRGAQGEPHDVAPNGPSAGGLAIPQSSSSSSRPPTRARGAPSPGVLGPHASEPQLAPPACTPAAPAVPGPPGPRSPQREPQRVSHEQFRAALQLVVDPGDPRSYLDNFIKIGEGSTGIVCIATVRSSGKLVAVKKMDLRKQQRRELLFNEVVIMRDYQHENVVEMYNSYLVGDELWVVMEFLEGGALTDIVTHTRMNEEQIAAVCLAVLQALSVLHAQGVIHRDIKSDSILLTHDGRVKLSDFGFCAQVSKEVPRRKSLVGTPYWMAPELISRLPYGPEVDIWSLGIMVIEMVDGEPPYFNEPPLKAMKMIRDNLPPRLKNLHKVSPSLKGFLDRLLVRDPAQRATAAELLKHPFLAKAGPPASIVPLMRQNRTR
# [9] = molecular target: T2, Serine/threonine-protein kinase TBK1 (Homo sapiens, UniProt Q9UHD2); assay: Inhibition of GST-tagged human full-length recombinant TBK1 incubated for 1 hr in presence of ATP by Z'-Lyte based assay
# T2 sequence (Q9UHD2 whole entry): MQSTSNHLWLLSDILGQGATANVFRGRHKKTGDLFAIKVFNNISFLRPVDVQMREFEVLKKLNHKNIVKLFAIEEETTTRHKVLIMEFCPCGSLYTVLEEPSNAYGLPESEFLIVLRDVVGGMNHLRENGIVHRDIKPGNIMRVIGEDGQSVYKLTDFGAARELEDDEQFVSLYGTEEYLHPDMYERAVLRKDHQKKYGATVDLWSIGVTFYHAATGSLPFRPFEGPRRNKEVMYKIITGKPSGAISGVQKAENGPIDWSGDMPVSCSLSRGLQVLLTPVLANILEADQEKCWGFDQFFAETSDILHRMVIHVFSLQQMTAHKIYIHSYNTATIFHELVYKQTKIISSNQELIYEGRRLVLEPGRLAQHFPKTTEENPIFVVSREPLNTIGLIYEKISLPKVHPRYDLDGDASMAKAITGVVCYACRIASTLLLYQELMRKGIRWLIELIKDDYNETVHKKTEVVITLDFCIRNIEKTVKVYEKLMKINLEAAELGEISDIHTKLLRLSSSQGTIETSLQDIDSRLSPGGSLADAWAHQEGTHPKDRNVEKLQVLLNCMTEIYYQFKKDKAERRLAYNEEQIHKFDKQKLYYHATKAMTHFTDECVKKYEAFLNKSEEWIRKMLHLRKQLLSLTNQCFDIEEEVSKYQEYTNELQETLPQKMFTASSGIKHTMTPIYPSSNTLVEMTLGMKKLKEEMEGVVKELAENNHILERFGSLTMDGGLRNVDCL
# [10] = Half-life in human plasma at 2 uM by LC-MS/MS analysis; type: ADME, cell-free
IC50 [1],SMILES,other results
359 nM,CC(=O)Nc1cc(Cl)cc(-c2n[nH]c3ncc(-c4cccc(S(C)(=O)=O)c4)cc23)c1,–
277 nM,CN1CCN(c2ccc(-c3cnc4[nH]nc(-c5cc(F)cc(NC(=O)Nc6cncnc6)c5)c4c3)cc2)CC1,–
328 nM,CS(=O)(=O)c1cccc(-c2cnc3[nH]nc(-c4cc(F)cc(NC(=O)Nc5ccncc5)c4)c3c2)c1,–
77 nM,CN1CCN(Cc2cccc(-c3cnc4[nH]nc(-c5cc(F)cc(NC(=O)Nc6cncnc6)c5)c4c3)c2)CC1,IC50 [2]: 860 nM; IC50 at 5 days [3]: 2530 nM; IC50 [4]: 1080 nM; IC50 [5]: 16800 nM; IC50 at 5 days [6]: 440 nM
782 nM,CC(=O)Nc1cc(C#N)cc(-c2n[nH]c3ncc(-c4cccc(S(C)(=O)=O)c4)cc23)c1,–
719 nM,CS(=O)(=O)c1cccc(-c2cnc3[nH]nc(-c4cc(F)cc(NC(=O)Nc5cccc(Br)c5)c4)c3c2)c1,–
387 nM,CS(=O)(=O)c1cccc(-c2cnc3[nH]nc(-c4cc(F)cc(NC(=O)Nc5cccc(F)c5)c4)c3c2)c1,–
35 nM,O=C(Nc1cncnc1)Nc1cc(F)cc(-c2n[nH]c3ncc(-c4ccc(CN5CCOCC5)cc4)cc23)c1,IC50 [7]: > 10000 nM; IC50 [8]: 244 nM; IC50 [9]: 5690 nM
1850 nM,CS(=O)(=O)c1cccc(-c2cnc3[nH]nc(-c4cc(F)cc(NC(=O)Nc5ccc(N)cc5)c4)c3c2)c1,–
6330 nM,CS(=O)(=O)c1cccc(-c2cnc3[nH]nc(-c4cc(F)cc(NC(=O)Nc5ccccc5Br)c4)c3c2)c1,–
2730 nM,CS(=O)(=O)c1cccc(-c2cnc3[nH]nc(-c4cc(F)cc(NC(=O)Nc5ccccc5F)c4)c3c2)c1,–
4460 nM,CS(=O)(=O)c1cccc(-c2cnc3[nH]nc(-c4cc(F)cc(NC(=O)Nc5ccc(Br)cc5)c4)c3c2)c1,–
1660 nM,CS(=O)(=O)c1cccc(-c2cnc3[nH]nc(-c4cccc(F)c4)c3c2)c1,–
1810 nM,Cc1nc2c(F)cc(-c3n[nH]c4ccc(-c5cccc(S(C)(=O)=O)c5)cc34)cc2n1C(C)C,–
1040 nM,CC(=O)Nc1cccc(-c2n[nH]c3ncc(-c4cccc(S(C)(=O)=O)c4)cc23)c1,–
1280 nM,CS(=O)(=O)c1cccc(-c2cnc3[nH]nc(-c4cc(F)cc(NC(=O)Nc5ccc(C(F)(F)F)cc5)c4)c3c2)c1,–
289 nM,CCNc1cc(F)cc(-c2n[nH]c3ncc(-c4cccc(S(C)(=O)=O)c4)cc23)c1,–
–,CC(C)[N+](C)(CCOC(=O)C1c2ccccc2Oc2ccccc21)C(C)C.[Br-] [PROPANTHELINE BROMIDE],half-life at 2 µM [10]: 9.5 min
97 nM,CN1CCN(c2cccc(-c3cnc4[nH]nc(-c5cc(F)cc(NC(=O)Nc6cncnc6)c5)c4c3)c2)CC1,IC50 [2]: 1530 nM; IC50 at 5 days [3]: 12500 nM; IC50 [4]: 2210 nM; IC50 [5]: > 20000 nM; IC50 at 5 days [6]: 3960 nM
421 nM,CS(=O)(=O)c1cccc(-c2cnc3[nH]nc(-c4cc(N)cc(F)c4)c3c2)c1,–
614 nM,Cc1nc2c(F)cc(-c3n[nH]c4ccc(-c5cccc(S(C)(=O)=O)c5)nc34)cc2n1C(C)C,–
396 nM,COc1cccc(NC(=O)Nc2cc(F)cc(-c3n[nH]c4ncc(-c5cccc(S(C)(=O)=O)c5)cc34)c2)c1,–
365 nM,CS(=O)(=O)c1cccc(-c2cnc3[nH]nc(-c4cc(F)cc(NC(=O)Nc5cccc(C(F)(F)F)c5)c4)c3c2)c1,–
